This note sets out measurements from ChEMBL document CHEMBL4622980, “Peptide Inhibitors of Bacterial Protein Synthesis with Broad Spectrum and SbmA-Independent Bactericidal Activity against Clinical Pathogens” (J Med Chem, 2020).

Values after ≈ are worked out from the molar mass of the structure shown. Non-standard residues stand in square brackets, D forms with d. Residues, ends and D or L forms follow the SMILES beside them. ξ: configuration not given here. ξP = O=C(O)C1CCCN1

This assay concerns Escherichia coli. Nature of the assay: Antibacterial activity against Escherichia coli BW25113 assessed as prevention visible bacterial growth incubated for 18 hrs. The class given is functional. The conditions noted are these: BW25113, 18 h.
Turning to `CC(C)C[C@H](NC(=O)[C@H](CCCNC(=N)N)NC(=O)[C@@H]1CCCN1C(=O)[C@@H]1CCCN1C(=O)[C@H](CCCNC(=N)N)NC(=O)[C@@H]1CCCN1C(=O)[C@H](CCCNC(=N)N)NC(=O)C1CCCN1C(=O)[C@H](CCCNC(=N)N)NC(=O)[C@@H](N)CCCNC(=N)N)C(=O)N1CCC[C@H]1C(=O)N[C@@H](CCCNC(=N)N)C(=O)N1CCC[C@H]1C(=O)N[C@@H](CCCNC(=N)N)C(=O)N1CCC[C@H]1C(=O)N[C@@H](CCCNC(=N)N)C(=O)O` (stereo partly drawn) (H-RR[ξP]RPRPPRLPRPRPR-OH), the MIC99 came out at 16 µM (≈ 33 µg/mL).

On to `CC[C@H](C)[C@H](NC(=O)C1CCCN1C(=O)[C@@H](N)CCCNC(=N)N)C(=O)N[C@@H](CCCNC(=N)N)C(=O)N1CCC[C@H]1C(=O)N[C@@H](CCCNC(=N)N)C(=O)N1CCC[C@H]1C(=O)N1CCC[C@H]1C(=O)N[C@@H](CCCNC(=N)N)C(=O)N[C@@H](CC(C)C)C(=O)N1CCC[C@H]1C(=O)N[C@@H](CCCNC(=N)N)C(=O)N1CCC[C@H]1C(=O)N[C@@H](CCCNC(=N)N)C(=O)N1CCC[C@H]1C(=O)N[C@@H](CCCNC(=N)N)C(=O)O` (stereo partly drawn) (H-R[ξP]IRPRPPRLPRPRPR-OH), for which the MIC99 was 64 µM (≈ 129 µg/mL).

H-ARIRPRPPRLPRPRPR-OH: the MIC99 was 4 µM.

As to H-ERIRPRPPRLPRPRPR-OH, the MIC99 was 64 µM.

On to H-FRIRPRPPRLPRPRPR-OH, for which the MIC99 came out at 4 µM.

H-GRIRPRPPRLPRPRPR-OH: the MIC99 worked out at 8 µM.

As to H-IRPLPPRRPRRPRRRP-OH, the MIC99 came out at 64 µM.

As to H-PRIRPRPPRLPRPRPR-OH, the MIC99 came to 8 µM.

Regarding H-RAIRPRPPRLPRPRPR-OH, the MIC99 worked out at 16 µM.

As to H-REIRPRPPRLPRPRPR-OH, the MIC99 stood at 64 µM.

For the compound H-RFIRPRPPRLPRPRPR-OH, the MIC99 was found to be 16 µM.

In the case of H-RGIRPRPPRLPRPRPR-OH, the MIC99 turned out to be 16 µM.

Take H-RRARPRPPRLPRPRPR-OH: the MIC99 worked out at 16 µM.

For the compound H-RRERPRPPRLPRPRPR-OH, the MIC99 worked out at 64 µM.

For the compound H-RRFRPRPPRLPRPRPR-OH, the MIC99 is 16 µM.

In the case of H-RRGRPRPPRLPRPRPR-OH, the MIC99 is 16 µM.

With H-RRIAPRPPRLPRPRPR-OH, the MIC99 came to 16 µM.

In the case of H-RRIEPRPPRLPRPRPR-OH, the MIC99 was above 64 µM.

For the compound H-RRIFPRPPRLPRPRPR-OH, the MIC99 amounted to 16 µM.

As to H-RRIGPRPPRLPRPRPR-OH, the MIC99 worked out at 16 µM.

On to H-RRIPPRPPRLPRPRPR-OH, for which the MIC99 worked out at 16 µM.

Take H-RRIRARPPRLPRPRPR-OH: the MIC99 is 8 µM.

For H-RRIRERPPRLPRPRPR-OH, the MIC99 was determined as 32 µM.

As for H-RRIRFRPPRLPRPRPR-OH, the MIC99 is 8 µM.

Regarding H-RRIRGRPPRLPRPRPR-OH, the MIC99 was 8 µM.

Take H-RRIRPAPPRLPRPRPR-OH: the MIC99 is 16 µM.

For the compound H-RRIRPEPPRLPRPRPR-OH, the MIC99 was above 64 µM.

Regarding H-RRIRPFPPRLPRPRPR-OH, the MIC99 is 16 µM.

Take H-RRIRPGPPRLPRPRPR-OH: the MIC99 came to 32 µM.

Consider H-RRIRPPPPRLPRPRPR-OH, for which the MIC99 amounted to 32 µM.

With H-RRIRPRAPRLPRPRPR-OH, the MIC99 is 16 µM.

Regarding H-RRIRPREPRLPRPRPR-OH, the MIC99 came to 32 µM.

For the compound H-RRIRPRFPRLPRPRPR-OH, the MIC99 is 8 µM.

Regarding H-RRIRPRGPRLPRPRPR-OH, the MIC99 is 16 µM.

Regarding H-RRIRPRPARLPRPRPR-OH, the MIC99 came to 16 µM.

As to H-RRIRPRPERLPRPRPR-OH, the MIC99 is 64 µM.

Turning to H-RRIRPRPFRLPRPRPR-OH, the MIC99 is 16 µM.

Take H-RRIRPRPGRLPRPRPR-OH: the MIC99 was found to be 16 µM.

In the case of H-RRIRPRPPALPRPRPR-OH, the MIC99 was determined as 64 µM.

For the compound H-RRIRPRPPELPRPRPR-OH, the MIC99 is above 64 µM.

As for H-RRIRPRPPFLPRPRPR-OH, the MIC99 amounted to 16 µM.

Regarding H-RRIRPRPPGLPRPRPR-OH, the MIC99 is 64 µM.

With H-RRIRPRPPPLPRPRPR-OH, the MIC99 worked out at 16 µM.

As to H-RRIRPRPPRAPRPRPR-OH, the MIC99 came to 64 µM.

For the compound H-RRIRPRPPREPRPRPR-OH, the MIC99 was above 64 µM.

Consider H-RRIRPRPPRFPRPRPR-OH, for which the MIC99 was 32 µM.

With H-RRIRPRPPRGPRPRPR-OH, the MIC99 worked out at 64 µM.

Take H-RRIRPRPPRLARPRPR-OH: the MIC99 stood at 32 µM.

With H-RRIRPRPPRLERPRPR-OH, the MIC99 was 64 µM.

Consider H-RRIRPRPPRLFRPRPR-OH, for which the MIC99 came to 32 µM.

As to H-RRIRPRPPRLGRPRPR-OH, the MIC99 came to 32 µM.

Turning to H-RRIRPRPPRLPAPRPR-OH, the MIC99 came out at 32 µM.

As for H-RRIRPRPPRLPEPRPR-OH, the MIC99 is above 64 µM.

In the case of H-RRIRPRPPRLPFPRPR-OH, the MIC99 came out at 16 µM.

As to H-RRIRPRPPRLPGPRPR-OH, the MIC99 came out at 32 µM.

As for H-RRIRPRPPRLPPPRPR-OH, the MIC99 came to 32 µM.

Consider H-RRIRPRPPRLPRARPR-OH, for which the MIC99 turned out to be 16 µM.

On to H-RRIRPRPPRLPRERPR-OH, for which the MIC99 worked out at 64 µM.

With H-RRIRPRPPRLPRFRPR-OH, the MIC99 worked out at 8 µM.

Take H-RRIRPRPPRLPRGRPR-OH: the MIC99 was 16 µM.

Turning to H-RRIRPRPPRLPRPAPR-OH, the MIC99 amounted to 32 µM.

Take H-RRIRPRPPRLPRPEPR-OH: the MIC99 was found to be 64 µM.

On to H-RRIRPRPPRLPRPFPR-OH, for which the MIC99 is 8 µM.

For the compound H-RRIRPRPPRLPRPGPR-OH, the MIC99 amounted to 32 µM.

With H-RRIRPRPPRLPRPPPR-OH, the MIC99 is 32 µM.

As for H-RRIRPRPPRLPRPRAR-OH, the MIC99 amounted to 8 µM.

For the compound H-RRIRPRPPRLPRPRER-OH, the MIC99 worked out at 32 µM.

As for H-RRIRPRPPRLPRPRFR-OH, the MIC99 stood at 8 µM.

Consider H-RRIRPRPPRLPRPRGR-OH, for which the MIC99 is 16 µM.

On to H-RRIRPRPPRLPRPRPA-OH, for which the MIC99 was found to be 16 µM.

With H-RRIRPRPPRLPRPRPE-OH, the MIC99 was 64 µM.

Regarding H-RRIRPRPPRLPRPRPF-OH, the MIC99 was found to be 8 µM.

Take H-RRIRPRPPRLPRPRPG-OH: the MIC99 is 16 µM.

As for H-RRIRPRPPRLPRPRPP-OH, the MIC99 turned out to be 32 µM.

Consider H-RRIRPRPPRLPRPRPS-OH, for which the MIC99 was 16 µM.

As to H-RRIRPRPPRLPRPRPW-OH, the MIC99 worked out at 8 µM.

H-RRIRPRPPRLPRPRRR-OH: the MIC99 is 16 µM.

In the case of H-RRIRPRPPRLPRPRSR-OH, the MIC99 stood at 16 µM.

For the compound H-RRIRPRPPRLPRPSPR-OH, the MIC99 was 32 µM.

In the case of H-RRIRPRPPRLPRPWPR-OH, the MIC99 was found to be 4 µM.

In the case of H-RRIRPRPPRLPRRRPR-OH, the MIC99 turned out to be 8 µM.

In the case of H-RRIRPRPPRLPRSRPR-OH, the MIC99 stood at 16 µM.

On to H-RRIRPRPPRLPRWRPR-OH, for which the MIC99 turned out to be 2 µM.

In the case of H-RRIRPRPPRLPSPRPR-OH, the MIC99 came out at 16 µM.

With H-RRIRPRPPRLPWPRPR-OH, the MIC99 turned out to be 8 µM.

On to H-RRIRPRPPRLRRPRPR-OH, for which the MIC99 is 16 µM.

Consider H-RRIRPRPPRLSRPRPR-OH, for which the MIC99 came to 32 µM.

As for H-RRIRPRPPRLWRPRPR-OH, the MIC99 is 8 µM.

H-RRIRPRPPRPPRPRPR-OH: the MIC99 turned out to be 64 µM.

In the case of H-RRIRPRPPRRPRPRPR-OH, the MIC99 was determined as 32 µM.

With H-RRIRPRPPRSPRPRPR-OH, the MIC99 came to 32 µM.

As for H-RRIRPRPPRWPRPRPR-OH, the MIC99 came to 16 µM.

For the compound H-RRIRPRPPSLPRPRPR-OH, the MIC99 worked out at 32 µM.

Consider H-RRIRPRPPWLPRPRPR-OH, for which the MIC99 amounted to 4 µM.

Turning to H-RRIRPRPRRLPRPRPR-OH, the MIC99 came out at 16 µM.

As for H-RRIRPRPSRLPRPRPR-OH, the MIC99 is 16 µM.

As to H-RRIRPRPWRLPRPRPR-OH, the MIC99 turned out to be 4 µM.

H-RRIRPRRPRLPRPRPR-OH: the MIC99 came to 8 µM.

Turning to H-RRIRPRSPRLPRPRPR-OH, the MIC99 was 16 µM.

Regarding H-RRIRPRWPRLPRPRPR-OH, the MIC99 turned out to be 4 µM.

Turning to H-RRIRPSPPRLPRPRPR-OH, the MIC99 worked out at 32 µM.

On to H-RRIRPWPPRLPRPRPR-OH, for which the MIC99 is 8 µM.

Regarding H-RRIRRRPPRLPRPRPR-OH, the MIC99 is 8 µM.

Regarding H-RRIRSRPPRLPRPRPR-OH, the MIC99 turned out to be 16 µM.

H-RRIRWRPPRLPRPRPR-OH: the MIC99 turned out to be 4 µM.

On to H-RRISPRPPRLPRPRPR-OH, for which the MIC99 came to 32 µM.

Consider H-RRIWPRPPRLPRPRPR-OH, for which the MIC99 came to 8 µM.

For H-RRRRPRPPRLPRPRPR-OH, the MIC99 worked out at 8 µM.

For the compound H-RRSRPRPPRLPRPRPR-OH, the MIC99 was 16 µM.

As for H-RRWRPRPPRLPRPRPR-OH, the MIC99 is 4 µM.

Turning to H-RSIRPRPPRLPRPRPR-OH, the MIC99 came out at 16 µM.

Regarding H-RWIRPRPPRLPRPRPR-OH, the MIC99 came out at 8 µM.

With H-SRIRPRPPRLPRPRPR-OH, the MIC99 came out at 16 µM.

A word on the MIC99: it is an inhibitory concentration at the 99% level, which refers to growth in some studies and to a panel of isolates in others.
